# In publication PMC5137160, “Optical imaging of MMP-12 active form in inflammation and aneurysm” (Scientific Reports, 2016):
# Key:
# hMMP-1 = target: T1, hMMP-1 (Homo sapiens, UniProt P03956); assay: MMP inhibition assay (Ki); assay type: biochemical
# T1 construct: purchased R&D Systems (Minneapolis, MN)
# T1 sequence (P03956 100-469): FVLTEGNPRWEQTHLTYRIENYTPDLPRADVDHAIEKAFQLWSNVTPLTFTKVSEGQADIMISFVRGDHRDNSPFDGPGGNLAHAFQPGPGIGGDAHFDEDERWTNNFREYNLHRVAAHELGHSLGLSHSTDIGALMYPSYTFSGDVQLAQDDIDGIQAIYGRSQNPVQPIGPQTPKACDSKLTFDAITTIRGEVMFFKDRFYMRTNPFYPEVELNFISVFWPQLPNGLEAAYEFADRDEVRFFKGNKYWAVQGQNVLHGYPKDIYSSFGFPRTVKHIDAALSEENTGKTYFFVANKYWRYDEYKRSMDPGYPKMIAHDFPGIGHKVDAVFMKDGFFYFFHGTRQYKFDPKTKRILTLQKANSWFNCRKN
# Procedure: (§1) Human MMP-8, -9, -12 and -13 were produced in the laboratory. Other MMPs were purchased from R&D Systems (Minneapolis, MN). MMP inhibition assays were carried out as previously described. Pro-MMPs were pre-activated by p-aminophenylmercuric acetate following the method described by R&D Systems. Titration experiments were carried out to determine active enzyme concentration for each MMP prior to the assay. For each probe, the percentage of inhibition was determined from five different concentrations in triplicates, chosen to reach a range of 20–80% inhibition. Ki values were determined using the method proposed by Horovitz and Leviski[45].
# hMMP-13 = target: T2, hMMP-13 (Homo sapiens, UniProt P45452); assay: MMP inhibition assay (Ki); assay type: biochemical
# T2 construct: made in house
# Procedure: as §1
# hMMP-14 = target: T3, hMMP-14 (Homo sapiens, UniProt P50281); assay: MMP inhibition assay (Ki); assay type: biochemical
# T3 construct: purchased R&D Systems (Minneapolis, MN)
# Procedure: as §1
# hMMP-2 = target: T4, hMMP-2 (Homo sapiens, UniProt P08253); assay: MMP inhibition assay (Ki); assay type: biochemical
# T4 construct: purchased R&D Systems (Minneapolis, MN)
# T4 sequence (P08253 110-660): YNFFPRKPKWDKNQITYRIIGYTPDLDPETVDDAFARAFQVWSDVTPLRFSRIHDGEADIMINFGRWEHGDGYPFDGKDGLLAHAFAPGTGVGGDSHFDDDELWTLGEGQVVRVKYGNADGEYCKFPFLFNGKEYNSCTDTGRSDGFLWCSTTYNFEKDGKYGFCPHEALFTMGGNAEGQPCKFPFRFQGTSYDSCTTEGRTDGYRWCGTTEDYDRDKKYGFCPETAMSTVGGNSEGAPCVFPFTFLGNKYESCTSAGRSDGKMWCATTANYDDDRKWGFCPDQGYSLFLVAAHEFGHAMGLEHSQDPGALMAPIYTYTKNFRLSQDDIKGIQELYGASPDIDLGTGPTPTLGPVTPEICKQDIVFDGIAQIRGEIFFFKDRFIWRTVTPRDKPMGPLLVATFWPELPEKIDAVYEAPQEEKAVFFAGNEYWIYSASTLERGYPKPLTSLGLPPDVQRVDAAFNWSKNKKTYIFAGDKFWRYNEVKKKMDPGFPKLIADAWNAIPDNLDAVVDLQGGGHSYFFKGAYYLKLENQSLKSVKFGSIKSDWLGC
# Procedure: as §1
# hMMP-3 = target: T5, hMMP-3 (Homo sapiens, UniProt P08254); assay: MMP inhibition assay (Ki); assay type: biochemical
# T5 construct: purchased R&D Systems (Minneapolis, MN)
# Procedure: as §1
# hMMP-7 = target: T6, hMMP-7 (Homo sapiens, UniProt P09237); assay: MMP inhibition assay (Ki); assay type: biochemical
# T6 construct: purchased R&D Systems (Minneapolis, MN)
# T6 sequence (P09237 95-267): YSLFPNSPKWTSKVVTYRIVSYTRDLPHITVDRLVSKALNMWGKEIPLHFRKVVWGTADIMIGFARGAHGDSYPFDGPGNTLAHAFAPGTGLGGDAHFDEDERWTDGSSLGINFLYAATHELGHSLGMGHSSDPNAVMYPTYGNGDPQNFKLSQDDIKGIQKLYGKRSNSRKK
# Procedure: as §1
# hMMP-8 = target: T7, hMMP-8 (Homo sapiens, UniProt P22894); assay: MMP inhibition assay (Ki); assay type: biochemical
# T7 construct: made in house
# Procedure: as §1
# hMMP-9 = target: T8, hMMP-9 (Homo sapiens, UniProt P14780); assay: MMP inhibition assay (Ki); assay type: biochemical
# T8 construct: made in house
# Procedure: as §1
# hMMP-12 = assay: MMP inhibition assay (Ki); assay type: biochemical, human
# Procedure: as §1
# TACE = TACE (Homo sapiens, UniProt P78536); assay: Metalloprotease inhibition assay (Ki); assay type: biochemical
# ADAMTS-5 = target: T9, ADAMTS-5 (Homo sapiens, UniProt Q9UNA0); assay: Metalloprotease inhibition assay (Ki); assay type: biochemical
# T9 sequence (Q9UNA0 262-930): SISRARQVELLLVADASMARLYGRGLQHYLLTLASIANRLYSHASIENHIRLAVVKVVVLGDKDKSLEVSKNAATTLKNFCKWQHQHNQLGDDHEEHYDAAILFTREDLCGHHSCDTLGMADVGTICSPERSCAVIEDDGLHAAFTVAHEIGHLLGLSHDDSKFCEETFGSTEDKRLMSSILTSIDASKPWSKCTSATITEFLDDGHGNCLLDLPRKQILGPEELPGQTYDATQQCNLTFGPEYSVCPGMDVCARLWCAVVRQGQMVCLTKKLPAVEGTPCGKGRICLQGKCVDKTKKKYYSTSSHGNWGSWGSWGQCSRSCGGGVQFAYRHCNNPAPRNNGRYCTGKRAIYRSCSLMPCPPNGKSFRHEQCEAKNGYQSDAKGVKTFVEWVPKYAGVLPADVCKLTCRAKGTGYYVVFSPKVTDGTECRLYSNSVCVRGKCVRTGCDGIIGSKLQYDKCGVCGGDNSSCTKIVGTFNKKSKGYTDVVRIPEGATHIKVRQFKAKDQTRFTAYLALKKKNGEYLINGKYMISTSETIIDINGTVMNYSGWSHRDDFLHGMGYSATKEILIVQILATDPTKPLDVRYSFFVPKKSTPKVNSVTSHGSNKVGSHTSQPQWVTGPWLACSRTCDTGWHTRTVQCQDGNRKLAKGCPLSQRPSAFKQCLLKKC
# MMP-12 [1] = target: T10, MMP-12 (Mus musculus, UniProt P34960); assay: Co-immunostaining of carotid artery sections with probe, fluorescence microscopy; set-up: species or system mice
# T10 construct: from tissue; host or cells: CaCl2-induced aneurysmal left carotid artery of apoE-deficient mice (in vivo imaging and cryostat sections)
# Procedure: Hematoxylin and eosin (H&E) staining and immunostaining of tissues were performed according to standard protocols on 5-μm-thick cryostat sections. For immunostaining, primary antibodies included anti-MMP-12 (sc-30072, Santa Cruz Biotechnology, Dallas, TX), anti-CD68 (AbD serotec, Raleigh, NC), anti-F4/80 (Cedarlane, Burlington, NC) and anti-CD31 (BD Pharmingen, San Jose, CA). Isotype-matched antibodies were used as controls. For co-immunostaining, tissue sections were fixed with acetone, and stained with the antibody followed by probe 2. Nuclei were stained with DAPI using ProLong® Gold Antifade Mountant with DAPI (Molecular Probes, Eugene, OR). The slides were photographed using a Spot RT3 camera (Diagnostic Instruments, Sterling Heights, MI) and a Zeiss Axiophot fluorescence microscope (Carl Zeiss Microscopy GmbH, Jena, Germany).
# hMMP-10 = target: T11, hMMP-10 (Homo sapiens, UniProt P09238); assay: MMP inhibition assay (Ki); assay type: biochemical
# T11 construct: purchased R&D Systems (Minneapolis, MN)
# Procedure: as §1
# MMP-12 [2] = system: MMP-12; set-up: method as in PMID 21212406; details: high fat-fed apoE-/- mice ref 3; cited from earlier work
# T7 sequence (P22894 101-467): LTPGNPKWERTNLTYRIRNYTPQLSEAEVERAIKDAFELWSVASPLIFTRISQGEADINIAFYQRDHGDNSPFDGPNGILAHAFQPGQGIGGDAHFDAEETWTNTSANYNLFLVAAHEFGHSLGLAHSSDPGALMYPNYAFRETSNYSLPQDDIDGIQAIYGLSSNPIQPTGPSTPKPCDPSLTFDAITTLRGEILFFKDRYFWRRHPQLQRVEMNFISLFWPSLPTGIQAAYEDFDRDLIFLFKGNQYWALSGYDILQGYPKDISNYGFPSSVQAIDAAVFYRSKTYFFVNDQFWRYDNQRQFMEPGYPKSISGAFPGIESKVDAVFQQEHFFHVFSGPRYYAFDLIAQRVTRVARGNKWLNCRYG
# T5 sequence (P08254 100-477): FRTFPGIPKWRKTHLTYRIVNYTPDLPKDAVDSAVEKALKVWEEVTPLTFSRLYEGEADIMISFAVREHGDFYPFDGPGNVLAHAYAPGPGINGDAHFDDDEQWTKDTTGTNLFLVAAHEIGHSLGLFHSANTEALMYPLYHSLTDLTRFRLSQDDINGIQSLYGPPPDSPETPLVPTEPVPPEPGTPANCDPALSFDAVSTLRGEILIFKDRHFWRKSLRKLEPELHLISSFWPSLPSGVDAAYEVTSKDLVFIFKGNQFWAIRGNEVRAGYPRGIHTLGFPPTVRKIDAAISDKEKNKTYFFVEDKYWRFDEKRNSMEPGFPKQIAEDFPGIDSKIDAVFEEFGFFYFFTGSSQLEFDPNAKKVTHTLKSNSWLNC
# T8 sequence (P14780 94-707): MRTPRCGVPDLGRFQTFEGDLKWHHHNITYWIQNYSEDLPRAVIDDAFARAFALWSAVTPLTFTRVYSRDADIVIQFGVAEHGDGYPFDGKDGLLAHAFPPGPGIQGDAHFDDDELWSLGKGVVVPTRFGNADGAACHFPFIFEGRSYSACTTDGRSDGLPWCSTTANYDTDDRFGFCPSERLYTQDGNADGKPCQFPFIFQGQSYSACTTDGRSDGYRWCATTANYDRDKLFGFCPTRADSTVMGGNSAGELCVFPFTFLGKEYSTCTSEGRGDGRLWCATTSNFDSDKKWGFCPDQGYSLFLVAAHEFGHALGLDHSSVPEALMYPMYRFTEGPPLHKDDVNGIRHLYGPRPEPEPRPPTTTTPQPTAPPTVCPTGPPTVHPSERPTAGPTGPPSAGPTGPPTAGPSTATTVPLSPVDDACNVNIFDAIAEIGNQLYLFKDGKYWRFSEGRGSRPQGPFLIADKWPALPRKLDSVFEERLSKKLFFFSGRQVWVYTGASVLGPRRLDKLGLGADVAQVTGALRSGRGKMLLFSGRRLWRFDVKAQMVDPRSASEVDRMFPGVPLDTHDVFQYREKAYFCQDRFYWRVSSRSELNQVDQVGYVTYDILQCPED
# Sequence of TACE (P78536 215-824): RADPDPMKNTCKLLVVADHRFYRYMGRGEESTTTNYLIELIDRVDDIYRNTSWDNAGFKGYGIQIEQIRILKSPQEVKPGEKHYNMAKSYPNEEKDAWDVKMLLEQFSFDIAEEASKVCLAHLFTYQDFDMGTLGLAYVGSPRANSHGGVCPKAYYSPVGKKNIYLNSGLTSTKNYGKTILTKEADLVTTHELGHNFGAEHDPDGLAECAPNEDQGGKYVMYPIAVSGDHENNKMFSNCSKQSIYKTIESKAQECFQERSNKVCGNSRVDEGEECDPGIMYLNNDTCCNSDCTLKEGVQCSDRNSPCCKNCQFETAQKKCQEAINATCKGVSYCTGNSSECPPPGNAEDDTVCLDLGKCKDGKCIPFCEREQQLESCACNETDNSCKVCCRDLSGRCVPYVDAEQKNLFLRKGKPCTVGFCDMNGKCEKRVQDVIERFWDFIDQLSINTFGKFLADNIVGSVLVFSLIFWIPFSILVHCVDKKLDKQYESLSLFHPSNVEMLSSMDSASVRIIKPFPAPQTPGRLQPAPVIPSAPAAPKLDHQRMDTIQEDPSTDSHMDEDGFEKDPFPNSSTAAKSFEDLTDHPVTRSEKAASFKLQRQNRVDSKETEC
# T11 sequence (P09238 99-476): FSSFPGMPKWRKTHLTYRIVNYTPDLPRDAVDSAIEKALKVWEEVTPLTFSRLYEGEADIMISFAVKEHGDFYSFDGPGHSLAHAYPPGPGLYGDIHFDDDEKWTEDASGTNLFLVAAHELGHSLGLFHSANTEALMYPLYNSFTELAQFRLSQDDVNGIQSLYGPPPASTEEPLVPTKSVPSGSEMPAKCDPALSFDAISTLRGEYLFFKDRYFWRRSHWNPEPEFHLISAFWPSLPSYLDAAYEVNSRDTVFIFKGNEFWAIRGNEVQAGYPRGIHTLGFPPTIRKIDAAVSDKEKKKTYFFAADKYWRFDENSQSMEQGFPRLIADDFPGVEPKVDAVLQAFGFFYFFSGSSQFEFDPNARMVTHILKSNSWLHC
# T10 sequence (P34960 110-473): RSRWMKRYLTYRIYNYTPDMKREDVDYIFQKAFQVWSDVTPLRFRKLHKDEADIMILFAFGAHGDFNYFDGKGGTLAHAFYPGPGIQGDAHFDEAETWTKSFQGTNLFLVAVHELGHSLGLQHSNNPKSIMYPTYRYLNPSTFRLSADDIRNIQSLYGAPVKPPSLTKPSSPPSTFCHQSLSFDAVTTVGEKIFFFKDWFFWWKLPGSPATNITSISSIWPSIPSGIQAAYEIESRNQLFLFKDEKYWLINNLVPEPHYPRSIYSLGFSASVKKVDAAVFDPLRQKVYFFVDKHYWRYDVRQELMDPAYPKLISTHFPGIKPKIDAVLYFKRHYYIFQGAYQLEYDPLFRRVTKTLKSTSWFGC
Structure (SMILES),Ki (hMMP-1),Ki (hMMP-13),Ki (hMMP-14),Ki (hMMP-2),Ki (hMMP-3),Ki (hMMP-7),Ki (hMMP-8),Ki (hMMP-9),loss of potency (drop in affinity) toward MMP-9 compared with RXP470.1 (hMMP-9; factor relative to RXP470.1),Ki (hMMP-12),"difference in potency towards MMP-12, factor relative to probe 1 (hMMP-12; relative to probe 1)",Ki (TACE),Ki (ADAMTS-5),probe co-localization with F4/80 positive cells (MMP-12 [1]; aneurysmal carotid artery sections),probe signal co-localization with MMP-12 (MMP-12 [1]; aneurysmal left carotid artery sections),Ki (hMMP-10),effect on atherosclerotic plaque (MMP-12 [2]),loss of potency toward MMP-10 compared with RXP470.1 (hMMP-10; relative to RXP470.1),loss of potency toward MMP-13 compared with RXP470.1 (hMMP-13; relative to RXP470.1)
CC[N+]1=C(/C=C/C=C2/N(CCCCCC(=O)NCCCOCCOCCOCCCNC(=O)[C@H](CCC(=O)O)NC(=O)[C@H](CCC(=O)O)NC(=O)[C@H](Cc3cc(-c4ccc(-c5cccc(Cl)c5)cc4)no3)CP(=O)(O)c3ccc(Br)cc3)c3ccc(S(=O)(=O)[O-])cc3C2(C)C)C(C)(C)c2cc(S(=O)(=O)O)ccc21 [probe 2],7.212 ± 0.066 µM,0.136 ± 0.015 µM,0.802 ± 0.058 µM,1.07 ± 0.018 µM,0.188 ± 0.022 µM,1.85 ± 0.071 µM,1.44 ± 0.035 µM,8.76 ± 0.05 µM,50,0.0061 ± 0.0001 µM,7,> 10 µM,> 10 µM,co-localized,partially co-localized,–,–,–,–
"NC(=O)[C@H](CCC(=O)O)NC(=O)[C@H](CCC(=O)O)NC(=O)[C@H](Cc1cc(-c2ccc(-c3cccc(Cl)c3)cc2)no1)CP(=O)(O)c1ccc(Br)cc1 [RXP470.1, reference compound]",> 10 µM,0.011 ± 0.01 µM,0.15 ± 0.021 µM,0.052 ± 0.004 µM,0.08 ± 0.002 µM,0.518 ± 0.04 µM,0.12 ± 0.04 µM,0.17 ± 0.05 µM,–,0.00026 µM,–,> 10 µM,6.1 ± 0.1 µM,–,–,0.017 ± 0.02 µM,reduces atherosclerotic plaque area and promotes a fibrous plaque phenotype,–,–
CC[N+]1=C(/C=C/C=C/C=C2/N(CCCCCC(=O)NCCCOCCOCCOCCCNC(=O)[C@H](CCC(=O)O)NC(=O)[C@H](CCC(=O)O)NC(=O)[C@H](Cc3cc(-c4ccc(-c5cccc(Cl)c5)cc4)no3)CP(=O)(O)c3ccc(Br)cc3)c3ccc4c(S(=O)(=O)[O-])cc(S(=O)(=O)O)cc4c3C2(C)C)C(C)(C)c2c1ccc1c(S(=O)(=O)O)cc(S(=O)(=O)O)cc21 [probe 1],> 10 µM,0.074 ± 0.07 µM,1.13 ± 0.061 µM,0.973 ± 0.063 µM,0.031 ± 0.002 µM,1.623 ± 0.013 µM,2.07 ± 0.022 µM,4.167 ± 0.041 µM,–,0.0009 µM,–,> 10 µM,1.49 ± 0.129 µM,–,–,0.071 ± 0.05 µM,–,less than ten times,less than ten times
